{
  "source": "patent US20060199841A1",
  "about": "“Pharmaceutical combination for the treatment of spasticity and/or pain” (priority 2003, published 2006)",
  "key": {"pain": {"tested_on": "pain", "conditions": "cited from earlier work"}, "[1]": {"tested_on": "neuropathic pain (allodynia)", "assay": "Rat allodynia model (Bennet-Xie model, von Frey filaments)", "type": "in vivo", "conditions": "for analgesic effect in the allodynia model (in words): i.p., dextromethorphan 10 mg/kg alone or in combined treatment with tolperisone", "source_text": "In our experiments, we applied the Bennet-Xie model (G. J. Bennett, Y.-K. Xie, Pain 33: 87-107; 1988) to test the effect of the combination against neuropathic pain. We measured the threshold of the pain reaction with von Frey filaments calibrated to 0.9, 1.2, 1.8, 3.6, 5.4, 6.9, 8.9, 12 and 20 g."}, "[2]": {"tested_on": "monosynaptic reflex, hemisected spinal cord preparation", "assay": "Spinal reflex inhibitory action in vitro, hemisected spinal cord preparation", "method": "Spinal reflex Inhibitory Action, In Vitro\nOur experiments were performed according to the methods described by Otsuka and Konishi (Otsuka and Konishi, Nature 1974. 252, 733.), with slight modifications (Kocsis et al., Brain Res. Bull. 2003. 60, 81.).\nThis experiment is suitable for testing central muscle relaxant activity. In the tremor test the efficacy of drugs may be considerably influenced by metabolic and pharmacokinetic factors, therefore we used an in vitro model to investigate the pharmacodynamic interaction between the components of the combination without the interference of the above factors.\nWe determined the dose-response curve for monosynaptic reflex inhibition of dextromethorphan alone, and in the presence of tolperisone or eperisone. In the control study we measured the effect of dextromethorphan at 0.25; 0.5 and 1 μM. In other experiments we added tolperisone (25 μM) or eperisone (20 μM) to the perfusion solution, and taking the equilibrium responses in these conditions as references, we measured the reflex inhibitory action of dextromethorphan. […] The potentiating effect of eperisone has been even more expressed (see Table 4.)."}, "[3]": {"tested_on": "GYKI 20039 induced tremor", "assay": "Tremor test in mice (GYKI 20039 induced tremor)", "type": "in vivo", "conditions": "for ED50: Mus musculus, ip; for Tremor inhibitory effect ED50: i.p.", "source_text": "Tremor can be induced by administration of GYKI 20039 (3-(2,6-dichlorophenyl)-2-iminothiazolidine). The method was published by Kocsis P., Tarnawa I., Kovács Gy., Szombathelyi Zs., Farkas S., 2002; Acta Pharmaceut. Hung., 72:49-61; U.S. Pat. No. 5,340,823, 1994, U.S. Pat. No. 5,198,446, JP 1992270293, EP 0468825, 1990 HU 4647.\nThe aim of our experiments was to decide if the effect of tolperisone is influenced by co-administration of dextromethorphan."}, "[4]": {"conditions": "in humans; cited from earlier work"}, "[5]": {"conditions": "15-minute pre-treatment, dose causing 50% tremor inhibition"}, "[6]": {"conditions": "15-minute pre-treatment, dose causing 50% tremor inhibition, read-out: Tremor inhibitory effect ED50"}},
  "note": "pIC50: −log10 of the molar value. Like-named read-outs stand apart in the source and are kept apart here.",
  "data": [
    {"smiles": "COc1ccc2c(c1)[C@]13CCCC[C@@H]1[C@H](C2)N(C)CC3", "note": "(racemic) [Dextromethorphan, (+/−)-3-methoxi-17-methylmorphinan]", "values": [
      {"measurement": "effect in the treatment of chronic pain", "setting": "pain; clinical trials, Ben-Abraham and Weinbroum 2000", "value": "ineffective"},
      {"measurement": "effect in an experimental human pain model", "setting": "pain; clinically acceptable dose range, Kaippula et al. 1995", "value": "no effect"},
      {"measurement": "relieving acute ischemic pain", "setting": "pain; in humans, Plesan et al. 2000", "value": "without effect"},
      {"measurement": "Threshold value (g) mean", "setting": "[1]; dextromethorphan 10 mg/kg i.p., time 0 min", "value": 3.26, "unit": "g"},
      {"measurement": "Threshold value (g) mean", "setting": "[1]; dextromethorphan 10 mg/kg i.p., time 10 min", "value": 7.57, "unit": "g"},
      {"measurement": "Threshold value (g) mean", "setting": "[1]; dextromethorphan 10 mg/kg i.p., time 20 min", "value": 6.03, "unit": "g"},
      {"measurement": "analgesic effect in the allodynia model (in words)", "setting": "[1]", "value": "practically ineffective"},
      {"measurement": "inhibition at 0.25 µM", "setting": "[2]; dextromethorphan 0.25 μM alone", "value": 20.7, "unit": "%"},
      {"measurement": "inhibition at 0.5 µM", "setting": "[2]; dextromethorphan 0.5 μM alone", "value": 36.6, "unit": "%"},
      {"measurement": "inhibition at 1 µM", "setting": "[2]; dextromethorphan 1 μM alone", "value": 40.9, "unit": "%"},
      {"measurement": "pIC50", "setting": "[2]; dextromethorphan alone, read-out: IC50 of dextromethorphan, reflex inhibitory activity", "value": 5.81},
      {"measurement": "Inhibition of tremor (control %) Mean", "setting": "[3]; 10 mg/kg dextromethorphan i.p.", "value": 8, "unit": "control %"},
      {"measurement": "tremor inhibition (in words)", "setting": "[3]; 10 mg/kg dextromethorphan, 10-minute pre-treatment", "value": "no significant tremor inhibition"},
      {"measurement": "ED50", "setting": "[3]; read-out: ED50 of inhibition of the tremor", "value": 24.4, "unit": "mg/kg"}
    ]},
    {"smiles": "CCc1ccc(C(=O)C(C)CN2CCCCC2)cc1", "note": "(stereo not shown) [Eperisone, 2-mehyl-1-(4-ethylphenyl)-3-(1-piperidinyl)-1-propanone]", "values": [
      {"measurement": "Tremor inhibitory effect ED50", "setting": "[3]; [5]", "value": 51.8, "unit": "mg/kg"}
    ]},
    {"smiles": "Cc1ccc(C(=O)C(C)CN2CCCCC2)cc1", "note": "(stereo not shown) [Tolperisone, 2-mehyl-1-(4-methylphenyl)-3-(1-piperidinyl)-1-propanone]", "values": [
      {"measurement": "oral bioavailability", "setting": "[4]", "value": "16-20%"},
      {"measurement": "analgesic effect in the allodynia model (in words)", "setting": "[1]", "value": "significant analgesic effect"},
      {"measurement": "Threshold value (g) mean", "setting": "[1]; tolperisone 20 mg/kg i.p., time 0 min", "value": 3.6, "unit": "g"},
      {"measurement": "Threshold value (g) mean", "setting": "[1]; tolperisone 20 mg/kg i.p., time 10 min", "value": 14.89, "unit": "g"},
      {"measurement": "Threshold value (g) mean", "setting": "[1]; tolperisone 20 mg/kg i.p., time 20 min", "value": 10.31, "unit": "g"},
      {"measurement": "Reflex Inhibition (%)", "setting": "[2]; tolperisone 25 μM alone", "value": 26.97, "unit": "%"},
      {"measurement": "Reflex Inhibition (%)", "setting": "[2]; tolperisone 50 μM alone", "value": 48.61, "unit": "%"},
      {"measurement": "Reflex Inhibition (%)", "setting": "[2]; tolperisone 100 μM alone", "value": 70.30, "unit": "%"},
      {"measurement": "pIC50", "setting": "[2]; tolperisone alone, sigmoid fitting, read-out: IC50 of tolperisone, reflex inhibitory activity", "value": 4.28},
      {"measurement": "Inhibition of tremor (control %) Mean", "setting": "[3]; 40 mg/kg tolperisone i.p.", "value": 27, "unit": "control %"},
      {"measurement": "Inhibition of tremor (control %) Mean", "setting": "[3]; 60 mg/kg tolperisone i.p.", "value": 48, "unit": "control %"},
      {"measurement": "Tremor inhibitory effect ED50", "setting": "[3]; [5]", "value": 60.0, "unit": "mg/kg"},
      {"measurement": "Inhibition of tremor (%)", "setting": "[3]; tolperisone 60 mg/kg i.p., dextromethorphan 0 mg/kg", "value": 48.3, "unit": "%"},
      {"measurement": "ED50 for the tremor inhibitory activity", "setting": "[3]; tolperisone alone", "value": "55.0 ± 7.2", "unit": "mg/kg"}
    ]},
    {"smiles": "Cc1ccccc1OCC(O)CO", "note": "(stereo not shown) [Mephenesin]", "values": [
      {"measurement": "ED50", "setting": "[3]; [6]", "value": 81.5, "unit": "mg/kg"}
    ]},
    {"smiles": "Cc1ccccc1-n1c(CF)nc2ccc(N)cc2c1=O", "note": "[Afloqualon]", "values": [
      {"measurement": "Tremor inhibitory effect ED50", "setting": "[3]; [5]", "value": 11.1, "unit": "mg/kg"}
    ]},
    {"smiles": "Clc1ccc2nsnc2c1NC1=NCCN1", "note": "[Tizanidine]", "values": [
      {"measurement": "ED50", "setting": "[3]; [6]", "value": 0.73, "unit": "mg/kg"}
    ]},
    {"smiles": "CC12CC3CC(C)(C1)CC(N)(C3)C2", "note": "[Memantine]", "values": [
      {"measurement": "ED50", "setting": "[3]; [6]", "value": 20.5, "unit": "mg/kg"}
    ]},
    {"smiles": "NCC(CC(=O)O)c1ccc(Cl)cc1", "note": "(stereo not shown) [Baclofen]", "values": [
      {"measurement": "ED50", "setting": "[3]; [6]", "value": 9.1, "unit": "mg/kg"}
    ]}
  ]
}
